Assay results taken from patent publication US9321804B2, “Synthesis and use of anti-tumor drug LQC-Y” (Beijing University of Chinese Medicine, priority 2011, dated 2016).
“Also recorded” adds a separate entry of the source.

How the values were obtained:
[1] = system: small vessel growth of CAM model; test: Effect of LQC-Y on tumor angiogenesis using CAM method (small vessel count); format: in vivo, chicken; details: compared with the blank group
Procedure: Aseptic gelatin sponge, which was made into a wafer having a diameter of 5 mm by a hole-puncher in advance, was used as sample carrier. The prepared derivatives of bromotetramethylpyrazine series were added thereinto in an aseptic environment and different dosage groups were set according to the difference of the molecular weight of each medicine, including 10 μg/chicken embryo, 20 μg/chicken embryo and 40 μg/chicken embryo. The 0.9% physiological saline was used in a blank group. The samples were air-dried in an aseptic environment.
A hatching egg after disinfection was put into a 37° C. incubation box with air sac upward until the seventh day of incubation. The egg embryo was disinfected using alcohol at a super clean bench, and then a small hole was drilled at the top of the egg embryo using a dental drill, and the nearby egg shell and shell membrane were removed carefully to form a opening with the size of about 1.2 cm×1.2 cm. […]
After the incubation, the transparent tape blocking the chicken embryo air sac was softly removed with a nipper. […] The effect of the compounds on angiogenesis was evaluated by the count analytic method using the numbers of great vessels, medium vessels and small vessels arranged radially around the carrier. […]

[2] = system: Human hepatoma carcinoma cells Bel7402; test: Proliferation of human hepatoma carcinoma cells Bel7402 by MTT; format: cell-based; details: for 24 h inhibition ratio (%): Bel7402 cells; for inhibiting effect on the proliferation of Bel7402 cells: cultured in vitro, 10-40 μg/ml
Procedure: Human hepatoma carcinoma cells Bel7402 were recovered and subcultured using a culture flask. The preparation of the experiment was started when the cell growth entered into the exponential growth phase. The cells were then digested using pancreatic enzyme which had been filtrated at an increased pressure to prepare the cell suspension. After that the suspension was dyed for 3 min with 0.4% trypan blue. Then a blood cell counting plate was used to count the living cells which were not dyed and the dead cells which were dyed to blue. The number of the living cells identified by trypan blue was more than 98%.
Three kinds of cells which were in the exponential growth phase were inoculated at the density of 1×10^4/ml, to a 96-well plate, 200 μl for each well. Then the plate was put in a 37° C. 5% CO2 incubation box to be cultured for 24 h. The cultivation liquid was sucked away and 200 μl LQC-Y solutions of different concentrations were added thereinto (prepared with DMEM cultivation liquid containing 4% calf serum and the final concentration of which respectively were 10 μg, 20 μg, 40 μg), 4 parallel wells for each concentration. Supernatant cultivation liquid 100 μl was sucked away carefully from each well after being cultured for 24 h and 48 h, and MTS 20 μl was added into each well and homogeneously mixed. The resultant liquid was cultured in a 37° C. 5% CO2 incubation box for a further 1 h. An enzyme-labeling quantitative instrument was used to measure the absorbance at 492 nm. The experiment was repeated for 3 times and then an inhibition ratio was calculated.
The inhibition ratio of cell proliferation (%)=[(average OD value of control group-average OD value of the administration group)/average OD value of control group]×100%

[3] = system: S180 sarcoma of mice; test: Tumor inhibiting effect of LQC-Y2 in tumor bearing S180 mice; details: for Tumor inhibiting ratio (%) / Tumor weight: S180 Balb/C mice, 15 days
Procedure: The S180 mice that had been inoculated for 7 days were killed by breaking the neck thereof and ascites was taken from the mice respectively in an aseptic environment and the ascites was washed using RPMI1640 culture medium for 2 times and then made into a […] /ml cell suspension using aseptic physiological saline. Then the obtained S180 cell suspension was inoculated hypodermically at the right axillary of mice, 0.1 ml for each mouse and 50 mice total, to establish the solid tumor model.
60 mice were divided into 2 categories, including 6 groups, according to the random number table method, i.e. normal control group of the first category, and S180 solid tumor groups of the second category which included positive (cyclophosphamide) control group, negative control group, small dosage group, middle dosage group and large dosage group, 10 mice for each group. The experiment was repeated for 3 times.
LQC-Y2 was made into an emulsion using corn oil. The dosage of the small dosage group was 75 mg/Kg, the dosage of the middle dosage group was 150 mg/Kg, and the dosage of the large dosage group was 300 mg/kg. Equal volume of corn oil was injected into the mice of the negative control group, cyclophosphamide injection 0.02 g/(Kg.d) was injected into the mice of the positive control group. These medicines were administrated 0.1 ml per mouse by intraperitoneal injection every the other day continuously for 15 days. During this period, the common behavior, hair and excrement and so on were observed daily. The mice that had been inoculated with S180 by hypodermic inoculation were killed by breaking the necks thereof after 24 h after the last administration and the tumor, liver and spleen were then taken.
The weight of the solid tumor group mice were measured after all the administration was over and then the mice were killed. The spleens and the livers thereof were weighed by an electronic balance. The spleen index was calculated as the spleen weight of a mouse (mg)/the body weight of a mouse(g) and the liver index was calculated as the liver weight of a mouse[…]/the body weight of a mouse(g).
The solid tumor negative control group mice were weighed on the next day after the administration was finished (the eyeballs of the mice were removed to bleed and the serum was collected for subsequent experimental use). Then the mice were killed by breaking the neck thereof. The tumor tissues were taken out and weighed by an electronic balance to calculate the tumor-inhibiting ratio.
All the data were statistically analyzed using SPSS11.0 software pack. The comparison of the enumeration data was carried out with X^2 test. P<0.05 had statistical significance.

[4] = system: Human hepatoma carcinoma cells Bel7402; test: Proliferation of human hepatoma carcinoma cells Bel7402 by MTT; format: cell-based; details: 40 μg/ml
[5] = large dosage 300 mg/kg i.p. every other day
[6] = middle dosage 150 mg/Kg i.p. every other day
[7] = small dosage 75 mg/Kg i.p. every other day

| Structure (SMILES) | vessel growth inhibiting effect [1] | 24 h inhibition ratio (%) ([2]; 10 μg/ml) | 24 h inhibition ratio (%) ([2]; 20 μg/ml) | inhibiting effect on the proliferation of Bel7402 cells [2] | effect on the growth of the sarcoma of S180 mice ([3]; 75-300 mg/kg i.p.) | Tumor inhibiting ratio (%) [3, 5] | Tumor weight [3, 5] | Tumor inhibiting ratio (%) [3, 6] | Tumor weight [3, 6] | Tumor inhibiting ratio (%) [3, 7] | Tumor weight [3, 7] | effect on the growth of the S180 sarcoma mice's weight ([3]; mouse, in vivo) | 24 h inhibition ratio (%) [4] |
| --- | --- | --- | --- | --- | --- | --- | --- | --- | --- | --- | --- | --- | --- |
| Cc1nc(C)c(COC(=O)CCC(C)C2CCC3C4CCC5CC(O)CCC5(C)C4CC(O)C23C)nc1C (stereo not drawn) [LQC-Y2, (3,5,6-trimethyl pyrazine-2-yl)methyl-4-(3,12-dihydroxy-10,13-dimethylhexadecahydro-1H-cyclopenta[a]phenanthren-17-yl)pentanoate] | significant inhibiting effect; also recorded: magnificent inhibiting effect | 20.09% | 61.2% | evident inhibiting effect | Some Effect on Inhibiting the Growth; also recorded: inhibit the growth of S180 tumor effectively | 29.15% | 0.92 ± 0.49 g | 35.88% | 0.84 ± 0.53 g | 6.87% | 1.22 ± 0.62 g | no effect | 66.98% |
| COc1cc(/C=C/C(=O)CC(=O)/C=C/c2ccc(OCc3nc(C)c(C)nc3C)c(OC)c2)ccc1OCc1nc(C)c(C)nc1C [LQC-Y8, (1E,6E)-1,7-bis(3-methoxy-4-((3,5,6-trimethylpyrazine-2-yl)methoxy)phenyl)heptyl-1,6-diene-3,5-diketone] | significant inhibiting effect; also recorded: magnificent inhibiting effect | 39.31% | 44.58% | evident inhibiting effect |  |  |  |  |  |  |  |  | 54.07% |
